# Measured values from ChEMBL document CHEMBL1201862, “PubChem BioAssay data set” (2004).
# Calls of active or inactive are those of the source.
# Key:
# [1] = target: T1, Oxysterols receptor LXR-beta (Homo sapiens, UniProt P55055); type: functional, cell-based;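 note: Cell-based luminescence dose-response assay of agonist activity at LXR, run as a confirmatory counterscreen to a daf-12 agonist screen; HEK293 cells with Gal4-LXR fusion and GAL4-driven luciferase reporter; agonist potency from rising luciferase signal of a Gal4-LXR reporter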
# T1 sequence (P55055 whole entry): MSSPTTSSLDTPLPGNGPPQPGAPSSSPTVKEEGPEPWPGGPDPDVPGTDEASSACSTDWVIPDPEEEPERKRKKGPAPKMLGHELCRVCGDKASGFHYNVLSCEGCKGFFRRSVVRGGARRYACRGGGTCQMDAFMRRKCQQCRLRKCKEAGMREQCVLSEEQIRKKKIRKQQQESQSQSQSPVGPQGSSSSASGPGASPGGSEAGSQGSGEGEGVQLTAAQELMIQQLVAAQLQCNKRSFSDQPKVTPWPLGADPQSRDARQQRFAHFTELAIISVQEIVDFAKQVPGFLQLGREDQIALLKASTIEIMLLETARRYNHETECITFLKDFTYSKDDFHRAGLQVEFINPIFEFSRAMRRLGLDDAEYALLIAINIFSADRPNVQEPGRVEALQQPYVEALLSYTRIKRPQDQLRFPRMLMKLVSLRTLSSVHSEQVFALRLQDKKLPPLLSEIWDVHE
# [2] = target: 5-hydroxytryptamine receptor 2A (Mus musculus, UniProt P35363); type: functional, cell-based;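 note: CHO-K1 cells with tagged receptor and beta-arrestin; agonist potency measured as compound-induced activation of the receptor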
# Mu-type opioid receptor = Mu-type opioid receptor (Homo sapiens, UniProt P35372); type: functional, cell-based;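 note: U2OS cells with beta-arrestin recruitment to OPRM1 by beta-gal complementation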
# [3] = target: T2, Methionyl-tRNA synthetase, putative (Trypanosoma brucei brucei, UniProt Q38C91); type: functional, Trypanosoma brucei brucei strain 927/4 GUTat10.1
# T2 sequence (Q38C91 whole entry): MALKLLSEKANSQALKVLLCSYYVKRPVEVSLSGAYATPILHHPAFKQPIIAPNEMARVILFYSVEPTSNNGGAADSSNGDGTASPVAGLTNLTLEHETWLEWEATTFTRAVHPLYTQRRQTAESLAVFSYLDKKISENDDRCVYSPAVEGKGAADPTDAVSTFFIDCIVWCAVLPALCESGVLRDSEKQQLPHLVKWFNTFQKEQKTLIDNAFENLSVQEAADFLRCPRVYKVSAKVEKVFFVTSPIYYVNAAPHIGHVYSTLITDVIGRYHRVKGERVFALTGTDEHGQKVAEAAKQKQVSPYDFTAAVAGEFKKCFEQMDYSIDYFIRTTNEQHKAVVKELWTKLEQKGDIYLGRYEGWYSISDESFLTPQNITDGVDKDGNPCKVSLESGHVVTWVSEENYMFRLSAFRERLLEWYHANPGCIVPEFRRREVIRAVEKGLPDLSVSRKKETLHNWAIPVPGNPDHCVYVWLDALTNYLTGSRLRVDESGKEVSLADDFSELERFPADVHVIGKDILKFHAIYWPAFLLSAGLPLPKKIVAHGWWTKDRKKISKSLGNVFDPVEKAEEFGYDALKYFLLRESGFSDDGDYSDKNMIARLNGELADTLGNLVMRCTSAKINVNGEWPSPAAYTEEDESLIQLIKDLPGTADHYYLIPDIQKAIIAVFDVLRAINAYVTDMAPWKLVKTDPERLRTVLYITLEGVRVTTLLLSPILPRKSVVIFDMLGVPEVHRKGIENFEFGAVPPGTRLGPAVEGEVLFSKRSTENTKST
# [4] = Counterscreen for inhibitors of Trypanosoma brucei methionyl tRNA synthetase (MetRS): Luminescence-based cell-based high throughput dose response assay to identify compounds that are cytotoxic to Jurkat human T lymphocyte cells.; type: functional
# [5] = target: T2, Methionyl-tRNA synthetase, putative; type: functional, Trypanosoma brucei brucei strain 927/4 GUTat10.1; remark: listed apart in the source
# [6] = target: Luciferin 4-monooxygenase (Photinus pyralis, UniProt P08659); assay: inhibition of purified Photinus pyralis luciferase – biochemical, luminescence, dose response (AID 1891)
# [7] = Luminescence Cell-Based Dose Confirmation HTS to Identify Inhibitors of Platelet Dense Granule Release. [Related pubchem assays: 1663 (Primary HTS), 1678 (Summary of Project)]; type: functional
# Protein skinhead-1 = target: T3, Protein skinhead-1 (Caenorhabditis elegans, UniProt P34707); type: functional
# T3 sequence (P34707 whole entry): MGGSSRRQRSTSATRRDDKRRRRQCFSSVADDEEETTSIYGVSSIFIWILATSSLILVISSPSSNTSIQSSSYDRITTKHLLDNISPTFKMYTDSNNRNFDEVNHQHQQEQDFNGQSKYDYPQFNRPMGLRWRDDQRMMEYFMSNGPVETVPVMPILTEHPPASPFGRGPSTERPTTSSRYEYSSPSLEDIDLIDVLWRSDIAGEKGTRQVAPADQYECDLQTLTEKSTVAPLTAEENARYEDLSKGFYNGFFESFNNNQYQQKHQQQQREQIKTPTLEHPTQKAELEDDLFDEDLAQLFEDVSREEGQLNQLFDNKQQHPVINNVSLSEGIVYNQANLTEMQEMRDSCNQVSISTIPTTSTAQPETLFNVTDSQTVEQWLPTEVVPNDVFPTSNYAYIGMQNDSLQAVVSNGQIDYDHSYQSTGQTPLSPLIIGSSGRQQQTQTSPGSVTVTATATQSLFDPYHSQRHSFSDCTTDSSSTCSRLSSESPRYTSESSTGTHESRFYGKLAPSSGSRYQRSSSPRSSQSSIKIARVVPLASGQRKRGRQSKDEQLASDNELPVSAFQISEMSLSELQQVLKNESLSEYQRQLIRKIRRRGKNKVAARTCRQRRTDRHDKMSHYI
# Paired box protein Pax-8 = Paired box protein Pax-8 (Homo sapiens, UniProt Q06710); assay: PAX8 transcriptional activity inhibition in RMG-I – RMG-I cells, luciferase, cherry-pick, dose response (AID 687027); type: functional, cell-based;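 note: luciferase reporter driven by Pax8 target thyroperoxidase promoter measured by SteadyGlo luminescence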
# [8] = general cell-killing toxicity readout – plate reader, dry powder samples, cytotoxicity control for PAX8 inhibitor project, dose response (AID 743021); type: functional, cell-based
# [9] = target: T4, Microphthalmia-associated transcription factor (Homo sapiens, UniProt O75030); assay: reducers of TRPM1 reporter luminescence, concentration series – cell-based, SK-MEL-5, cherry-picked, set 3, MITF inhibitor project, dose response (AID 493073); type: functional;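 note: SK-MEL-5 melanoma cells with luciferase driven by the MITF target TRPM1 promoter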
# T4 sequence (O75030 whole entry): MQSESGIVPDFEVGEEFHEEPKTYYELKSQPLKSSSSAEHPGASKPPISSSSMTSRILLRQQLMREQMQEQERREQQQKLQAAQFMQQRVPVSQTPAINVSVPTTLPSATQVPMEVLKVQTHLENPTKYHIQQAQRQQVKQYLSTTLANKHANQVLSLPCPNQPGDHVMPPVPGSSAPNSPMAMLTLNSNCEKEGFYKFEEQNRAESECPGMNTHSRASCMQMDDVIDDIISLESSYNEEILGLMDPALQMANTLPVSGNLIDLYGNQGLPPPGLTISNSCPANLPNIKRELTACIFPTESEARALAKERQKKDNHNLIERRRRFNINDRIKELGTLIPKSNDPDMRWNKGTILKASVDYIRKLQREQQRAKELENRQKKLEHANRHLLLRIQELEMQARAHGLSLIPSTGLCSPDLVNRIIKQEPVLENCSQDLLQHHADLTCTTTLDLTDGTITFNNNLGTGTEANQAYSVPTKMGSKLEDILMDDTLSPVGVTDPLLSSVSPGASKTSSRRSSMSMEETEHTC
# [10] = off-target signal loss in HeLa-CEM21 co-culture – HeLa F-luc CTL cells, cherry-picked, counter-screen for HIV-1 Env fusion inhibitor project, dose response (AID 652040); type: functional, cell-based;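 note: potency for signal decrease marking cytotoxic or nonspecific inhibition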
# [11] = blockers of HIV-1 ZM109 envelope-driven cell-cell fusion – HeLa effector, CEM target cells, luciferase, cherry-pick, dose response (AID 652058); type: functional, cell-based;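 note: luciferase signal from HIV-1 Env mediated cell-cell fusion of effector and target cells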
# [12] = viability loss in CEM21 cells – cell-based, CellTiter-Glo luminescence, cherry-picked, cytotoxicity control for viral fusion inhibitor project, dose response (AID 652042); type: functional;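 note: potency for signal decrease meaning cytotoxicity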
# [13] = blockers of HIV-1 envelope-mediated cell-cell fusion – cherry-pick, dose response (AID 652057); type: functional, cell-based
# [14] = HIV-1 AD8 envelope cell-cell fusion blockers – cherry-pick, dose response (AID 652062); type: functional, cell-based;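 note: luciferase signal from cell-cell fusion driven by HIV-1 clade B AD8 Env; potency is for inhibitors of fusion seen as a drop in luminescence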
# [15] = OVCAR8 cell viability loss – plate reader, dry powder samples, PAX8 project, dose response (AID 743197); type: functional, cell-based; conditions: OVCAR-8
# [16] = target: T5, Calpain-2 catalytic subunit (Sus scrofa, UniProt P43367); assay: m-calpain protease blockers, concentration series – biochemical, fluorogenic peptide substrate, dose response (AID 1420); type: functional
# T5 sequence (P43367 whole entry): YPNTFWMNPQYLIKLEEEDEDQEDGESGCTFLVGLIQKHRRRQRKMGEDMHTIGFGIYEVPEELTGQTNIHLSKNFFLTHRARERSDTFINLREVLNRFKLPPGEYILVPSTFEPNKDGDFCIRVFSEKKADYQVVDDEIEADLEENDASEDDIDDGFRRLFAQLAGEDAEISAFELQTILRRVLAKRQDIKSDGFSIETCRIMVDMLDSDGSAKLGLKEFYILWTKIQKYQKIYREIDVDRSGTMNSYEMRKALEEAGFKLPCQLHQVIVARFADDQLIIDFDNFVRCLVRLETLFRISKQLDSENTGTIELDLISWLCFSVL
# Streptokinase A = target: T6, Streptokinase A (Streptococcus pyogenes serotype M1, UniProt P10520); assay: viability-normalized secreted streptokinase activity reduction – plasminogen activation absorbance, OD405, dose response (AID 1914); type: functional, Streptococcus pyogenes M1 GAS;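 note: secreted streptokinase activity via plasminogen activation per viability signal from cell pellet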
# T6 sequence (P10520 whole entry): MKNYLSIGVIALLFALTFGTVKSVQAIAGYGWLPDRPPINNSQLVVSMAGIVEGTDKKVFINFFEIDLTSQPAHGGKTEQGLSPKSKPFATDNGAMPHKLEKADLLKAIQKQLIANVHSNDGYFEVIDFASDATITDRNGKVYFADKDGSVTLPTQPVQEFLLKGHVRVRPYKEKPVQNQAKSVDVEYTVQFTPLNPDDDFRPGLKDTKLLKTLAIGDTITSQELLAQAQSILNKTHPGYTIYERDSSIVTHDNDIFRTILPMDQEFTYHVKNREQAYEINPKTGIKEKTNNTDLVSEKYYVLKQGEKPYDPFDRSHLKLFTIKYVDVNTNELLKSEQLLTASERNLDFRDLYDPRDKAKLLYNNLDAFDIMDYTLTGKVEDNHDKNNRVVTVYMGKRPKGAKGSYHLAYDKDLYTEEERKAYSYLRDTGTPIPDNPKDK
# [17] = viability of uninfected HEp-2 cells – cell-based, HTS, cytotoxicity control for RSV inhibitor project, dose response (AID 2410); type: functional; conditions: human respiratory syncytial virus
# [18] = blockade of melanocortin 4 receptor signaling – cell-based, plate reader, cherry pick, counter-screen for LGR2 antagonist project, dose response (AID 743444); type: functional;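 note: transfected HEK 293 cells stimulated with alpha-MSH peptide; potency of inhibitors of the alpha-MSH evoked signal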
# [19] = A549 cell cytotoxicity, dose response, cytotoxicity control, plate reader, cherry-pick, antagonist series (AID 743412); type: functional, cell-based
# [20] = toxicity toward HepG2 liver cells – cell-based, plate reader, cherry-pick, antagonist series, cytotoxicity control, dose response (AID 743416); type: functional
# [21] = viability loss in HEK293 cells – cell-based, plate reader, cherry-picked samples, cytotoxicity control, dose response (AID 743446); type: functional
# [22] = blockers of bursicon-stimulated LGR2 cAMP reporter – cell-based, HEK293, CRE-luciferase reporter, cherry pick, set 2, dose response (AID 743343); type: functional;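 note: transfected cells were stimulated with diluted bursicon conditioned medium after compound addition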
# [23] = viability loss in THP-1 monocytes – THP-1 cells, cytotoxicity control for Vif-APOBEC3G degradation inhibitor project, dose response (AID 1117359); type: functional; conditions: THP-1
# Paired box protein Pax-8, sequence (Q06710 whole entry): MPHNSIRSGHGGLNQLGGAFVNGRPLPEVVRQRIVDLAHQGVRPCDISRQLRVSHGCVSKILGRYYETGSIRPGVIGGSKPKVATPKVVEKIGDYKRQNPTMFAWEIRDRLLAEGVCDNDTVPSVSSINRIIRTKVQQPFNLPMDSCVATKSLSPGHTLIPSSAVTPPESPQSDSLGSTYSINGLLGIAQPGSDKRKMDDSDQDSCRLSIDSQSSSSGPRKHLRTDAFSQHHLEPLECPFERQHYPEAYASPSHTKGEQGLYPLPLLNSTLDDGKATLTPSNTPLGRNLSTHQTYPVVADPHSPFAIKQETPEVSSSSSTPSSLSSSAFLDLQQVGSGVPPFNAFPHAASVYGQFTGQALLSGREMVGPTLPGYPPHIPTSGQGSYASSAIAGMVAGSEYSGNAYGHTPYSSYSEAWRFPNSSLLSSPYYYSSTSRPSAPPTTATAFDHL
# Mu-type opioid receptor, sequence (P35372 whole entry): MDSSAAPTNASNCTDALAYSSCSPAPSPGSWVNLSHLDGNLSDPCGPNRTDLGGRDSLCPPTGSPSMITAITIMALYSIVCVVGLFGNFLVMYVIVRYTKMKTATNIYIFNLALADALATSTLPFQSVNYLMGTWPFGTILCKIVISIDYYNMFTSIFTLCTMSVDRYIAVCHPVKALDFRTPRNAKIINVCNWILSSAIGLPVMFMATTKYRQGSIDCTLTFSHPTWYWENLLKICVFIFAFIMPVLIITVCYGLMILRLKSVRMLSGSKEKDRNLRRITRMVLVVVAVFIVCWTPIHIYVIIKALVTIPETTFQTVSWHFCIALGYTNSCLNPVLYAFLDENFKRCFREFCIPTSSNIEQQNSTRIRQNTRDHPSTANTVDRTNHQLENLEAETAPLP
# 5-hydroxytryptamine receptor 2A, sequence (P35363 whole entry): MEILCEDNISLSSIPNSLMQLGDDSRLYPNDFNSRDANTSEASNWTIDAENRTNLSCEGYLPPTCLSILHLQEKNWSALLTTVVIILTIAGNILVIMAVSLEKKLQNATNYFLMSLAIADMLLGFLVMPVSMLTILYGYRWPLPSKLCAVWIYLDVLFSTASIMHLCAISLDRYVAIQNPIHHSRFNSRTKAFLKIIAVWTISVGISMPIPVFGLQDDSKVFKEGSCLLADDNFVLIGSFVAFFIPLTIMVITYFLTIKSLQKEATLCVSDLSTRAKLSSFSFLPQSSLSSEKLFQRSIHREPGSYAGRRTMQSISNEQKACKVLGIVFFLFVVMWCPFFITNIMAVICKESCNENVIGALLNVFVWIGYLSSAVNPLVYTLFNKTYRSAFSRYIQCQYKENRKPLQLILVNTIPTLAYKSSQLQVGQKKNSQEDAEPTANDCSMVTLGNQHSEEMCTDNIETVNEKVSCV
# Luciferin 4-monooxygenase, sequence (P08659 whole entry): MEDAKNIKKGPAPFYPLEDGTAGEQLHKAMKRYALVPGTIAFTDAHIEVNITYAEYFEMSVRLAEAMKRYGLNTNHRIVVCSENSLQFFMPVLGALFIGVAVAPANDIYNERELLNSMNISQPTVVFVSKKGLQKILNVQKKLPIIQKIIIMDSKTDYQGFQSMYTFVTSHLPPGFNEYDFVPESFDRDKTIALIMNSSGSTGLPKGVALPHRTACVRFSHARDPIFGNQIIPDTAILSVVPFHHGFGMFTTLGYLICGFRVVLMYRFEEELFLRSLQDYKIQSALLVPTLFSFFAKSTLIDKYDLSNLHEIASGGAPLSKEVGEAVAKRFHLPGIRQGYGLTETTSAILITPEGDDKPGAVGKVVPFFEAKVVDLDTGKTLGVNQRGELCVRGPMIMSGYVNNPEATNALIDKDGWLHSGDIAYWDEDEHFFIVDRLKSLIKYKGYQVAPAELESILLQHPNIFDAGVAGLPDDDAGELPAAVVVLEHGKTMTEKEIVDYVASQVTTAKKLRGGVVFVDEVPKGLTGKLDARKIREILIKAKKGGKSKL
smiles,measurement,setting,value
Cc1ccnc(NC(=S)NC(=O)c2cccs2)c1,EC50,[1],> 67.5 µM (inactive)
same,EC50,cells,> 67.5 µM (inactive)
Fc1ccccc1CN1CCN(c2ncccn2)CC1,EC50,[2],1.26 µM (active)
same,EC50,Mu-type opioid receptor,92.5 µM (inactive)
O=c1c(Cc2ccc(Cl)cc2Cl)c(O)ccn1Cc1ccncc1,IC50,[3],20 µM (inactive)
same,IC50,[4],83.2 µM (inactive)
same,IC50,[5],29.2 µM (inactive)
Cn1c(-c2ccco2)nc2cc3ccccc3cc21,EC50,[1],> 67.5 µM (inactive)
same,EC50,[6],0.695 µM (active)
same,EC50,[7],2.69 µM (active)
same,IC50,Protein skinhead-1,33.9 µM (active)
same,EC50,cells,> 67.5 µM (inactive)
O=C(O)c1ccc(N/N=C/c2ccc3nccnc3c2)cc1,EC50,[6],3.43 µM (active)
same,AC50,Paired box protein Pax-8,2.07 µM (active)
same,EC50,[7],7.25 µM (active)
same,AC50,[8],30.5 µM (active)
same,AC50,[9],0.696 µM (active)
same,AC50,[10],2.97 µM (active)
same,AC50,[11],6.51 µM (active)
same,AC50,[12],46.5 µM (active)
same,AC50,[13],0.685 µM (active)
same,AC50,[14],2.13 µM (active)
COc1ccccc1C#Cc1ccc2c(c1)O[C@H](CN(C)Cc1cccnc1)[C@H](C)CN([C@H](C)CO)S2(=O)=O,AC50,Paired box protein Pax-8,8.98 µM (active)
same,AC50,[15],31.8 µM (active)
CC(CNC(=S)Nc1cc(F)cc(F)c1)CSc1ccc(Cl)cc1 (centres undefined),IC50,[16],13.5 µM (not active)
same,EC50,Streptokinase A,30 µM (active)
same,IC50,[3],23.9 µM (inactive)
same,IC50,[5],15.4 µM (inactive)
COc1ccc(NC(=O)CSc2ccc(-c3ccccn3)nn2)cc1OC,EC50,[2],0.589 µM (active)
same,EC50,Mu-type opioid receptor,92.4 µM (inactive)
O=C(Nc1ccc(C(=O)O)cc1)/C(=C\C=C\c1ccccc1)NC(=O)c1cccc(Br)c1,IC50,[3],45.6 µM (inactive)
same,IC50,[4],83.3 µM (inactive)
same,IC50,[5],60.7 µM (inactive)
same,CC50,[17],33.7 µM (active)
COc1ccccc1-c1ccc(OCCCN2CCC(C(O)(c3ccccc3)c3ccccc3)CC2)cc1,AC50,Paired box protein Pax-8,10.2 µM (active)
same,AC50,[18],18.1 µM (active)
same,AC50,[8],28.1 µM (active)
same,AC50,[19],5.11 µM (active)
same,AC50,[20],6.44 µM (active)
same,AC50,[21],9.63 µM (active)
same,AC50,[22],16.3 µM (active)
COc1ccc(CC2(CO)CCN(C(C)COc3ccccc3)CC2)cc1 (centres undefined),EC50,[2],0.115 µM (active)
same,EC50,Mu-type opioid receptor,92.4 µM (inactive)
COc1ccc(Cc2nnc(NC(=O)CSc3ccccc3)s2)cc1,CC50,[23],> 40 µM (active)
